Assay results from paper PMC10279527, “Structural basis of metabolite transport by the chloroplast outer envelope channel OEP21” (Nature Structural & Molecular Biology, 2023).
Values joined by “and” are separate entries in the source; they are usually repeats but may differ in a detail not shown here. Identical values can stand only once. Like-named read-outs stand apart in the source and are kept apart here.

Columns and labels:
[1] = target: T1, OEP21 wt (Pisum sativum, UniProt Q9SM57); test: NMR titrations (2D-[15N,1H]-TROSY) of OEP21 with metabolites; type: binding, garden pea
T1 construct: made in house

[2] = target: T1, OEP21 wt; test: FP competition with preformed MANT-ATP/OEP21-WT complex; type: binding, garden pea
Protocol: (§1) FP assays were performed on a spectrofluorometer FP-8300 (Jasco) equipped with a water bath cooling system MCM-100 (Jasco). […] A buffer containing no EDTA was used when MgCl2 was present. […] KD values were derived by fitting the data to a one-site binding model. […] All FP experiments were performed as triplicates.

[3] = target: T2, OEP21ΔL5 (Pisum sativum, UniProt Q9SM57, DEL70-80); test: FP competition with preformed MANT-ATP/OEP21ΔL5 complex; type: binding, garden pea
T2 construct: made in house; host or cells: Escherichia coli BL21(DE3) (described for OEP21)
Protocol: as §1

[4] = target: T1, OEP21 wt; test: SEC metabolite translocation assay with OEP21 WT proteoliposomes;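 on all read-outs here: control is liposomes reconstituted without protein, prepared alongside. Molecule content inside liposomes measured after Triton X-100 disruption. PD10 SEC runs done with or without ATP and/or MgCl2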; type: biochemical, garden pea; conditions: for Relative content (% of mean Control): Fig. 4f, WT proteoliposomes, molecules of increasing molecular weight
[5] = target: OmpX (Escherichia coli, UniProt P0A917); test: 2D NMR control with OmpX in LDAO micelles; set-up: species or system bacterial; conditions: up to 5 mM GAP; control for nonspecific binding
Protocol: (a) (left) 2D-[^15N,^1H]-TROSY NMR spectra of 400 µM ^2H,^15N-labeled OmpX in LDAO micelles in 20 mM sodium phosphate, pH6.0, 50 mM NaCl, 0.5 mM EDTA and the indicated concentrations of D-GAP at 30 °C and 1.2 GHz magnetic field. (right) 2D-projections along the ^1H dimension of the 2D-spectra shown on (left). […] (right) Relative NMR peak intensities derived from the data in (left) and (middle). Buffer: 10 mM Na-phosphate pH7.0, 20 mM NaCl, 7% (v/v) D2O. […] (right) 150 mM MgCl2 was titrated into 15 mM potassium phosphate (Pi). Buffer conditions for all experiments were: 10 mM HEPES pH7.0, 20 mM NaCl.

[6] = target: T3, OEP21 (Pisum sativum, UniProt Q9SM57); conditions: Cu^2+ oxidation then BS^3; 5 mM metabolite
[7] = target: T3, OEP21; test: Trypsin cleavage of recombinant OEP21 in liposomes; set-up: made in house; species or system garden pea; conditions: 10 µM OEP21 in liposomes; 5 mM metabolite
Protocol: Sample aliquots were quenched by addition of 1 mM PMSF at the indicated time points and were analyzed by SDS–PAGE.

[8] = target: T3, OEP21; test: Amide hydrogen exchange NMR (CLEANEX) of OEP21 L5; set-up: made in house; species or system garden pea; conditions: 2 mM ATP or 5 mM GAP; 303 K, pH 6.0

O=C[C@H](O)COP(=O)(O)O [GAP, D-glyceraldehyde-3-phosphate]
Kd ([1]; KD GAP - Loop5, Loop5, individual KDs): 2700 µM and 4360 µM and 2480 µM
Kd ([1]; KD GAP - Loop5, Mean, Loop5, mean): 3180 µM
Kd ([1]; KD, NMR, Fig. 3b): ~150 µM
Kd ([1]; KDs GAP+Mg, Mean, with Mg, mean): 709 µM
Kd ([1]; KDs GAP+Mg, with Mg, individual KDs): 310 µM and 690 µM and 450 µM and 960 µM and 920 µM and 1170 µM and 470 µM and 980 µM and 750 µM and 710 µM and 670 µM
Kd ([1]; KDs OEP21wt + GAP, Mean, OEP21wt, mean, unit inferred): 152 µM
Kd ([1]; KDs OEP21wt + GAP, OEP21wt, individual KDs, unit inferred): 154 µM and 180 µM and 186 µM and 146 µM and 177 µM and 143 µM and 138 µM and 137 µM and 127 µM and 149 µM
effect of Mg^2+ on binding affinity (in words) ([1]; NMR, Fig. 3h, addition of Mg^2+): decreased the binding affinity to a similar extent
Kd ([1]; affinity of residues in L5, NMR, Fig. 3h): ~3000 µM
fold increase in Kd ([1]; individual determinations KD1-KD12, relative to ATP pH7): 18.8725 and 22.0588 and 22.7941 and 17.8922 and 21.6912 and 17.5245 and 16.9118 and 16.7892 and 15.5637 and 18.2598
fold increase in Kd, mean values ([1]; mean, relative to ATP pH7): 18.7
IC50 ([2]; IC50 (dissociation of MANT-ATP), OEP21-WT, 1 µM MANT-ATP, 1 µM protein): ~10000 µM
IC50 ([2]; IC50, wt, individual determinations): 11000 µM and 10700 µM
IC50 ([2]; mean IC50, wt): 10900 µM
IC50 ([3]; IC50 (dissociation of MANT-ATP), OEP21ΔL5, 1 µM MANT-ATP, 1 µM protein): ~26000 µM
IC50 ([3]; dL5, individual determinations, read-out: IC50): 31100 µM and 20400 µM
IC50 ([3]; dL5, read-out: mean IC50): 25700 µM
Relative GAP content (% of mean Control) ([4]; ED Fig. 10a, WT 0.05uM, Mean): 95.6446 % of mean Control
Relative GAP content (% of mean Control) ([4]; ED Fig. 10a, WT 0.5uM, Mean): 62.4352 % of mean Control
Relative GAP content (% of mean Control) ([4]; ED Fig. 10a, WT 5uM, Mean): 38.701 % of mean Control
Relative GAP content (% of mean Control) ([4]; ED Fig. 10b, +ATP (2 mM per legend), OEP21 0.05uM, Mean): 91.3817 % of mean Control
Relative GAP content (% of mean Control) ([4]; ED Fig. 10b, +ATP (2 mM per legend), OEP21 0.5uM, Mean): 64.3295 % of mean Control
Relative GAP content (% of mean Control) ([4]; ED Fig. 10b, +ATP (2 mM per legend), OEP21 5uM, Mean): 54.5372 % of mean Control
Relative GAP content (% of mean Control) ([4]; ED Fig. 10c, WT, 0.05M NaCl, Mean): 38.1976 % of mean Control
Relative GAP content (% of mean Control) ([4]; ED Fig. 10c, WT, 1M NaCl, Mean): 59.8192 % of mean Control
Relative GAP content (% of mean Control) ([4]; ED Fig. 10c, WT, […] NaCl, Mean): 46.186 % of mean Control
Relative content (% of mean Control) ([4]; Mean): 48.3557 % of mean Control
Relative content (% of mean Control) ([4]; single replicates): 46.601 % of mean Control and 48.0754 % of mean Control and 50.3906 % of mean Control
Relative GAP content (% of mean Control) ([4]; Fig. 4d, WT, 5mM ATP, Mean): 40.9262 % of mean Control
Relative GAP content (% of mean Control) ([4]; Fig. 4d, WT, 10mM MgCl2+5mM ATP, Mean): 54.2808 % of mean Control
Relative GAP content (% of mean Control) ([4]; Fig. 4d, WT, 10mM MgCl2, Mean): 63.8331 % of mean Control
passage through the OEP21 channel (in words) ([4]; proteoliposomes, SEC, deadtime ~4 min): passed through the channel
effect on 2D-NMR spectra of OmpX (in words) [5]: did not observe any effect
effect on enhanced oligomerization of Cys109-oxidized OEP21 (in words) [6]: reduced this process
effect on trypsin digestion of L5 (in words) [7]: slightly protected L5 from proteolytic digestion
amide hydrogen exchange rates in L5 in the complex (in words) [8]: reduced
